Experimental data taken from ChEMBL document CHEMBL4033678, “A fragment-based approach leading to the discovery of a novel binding site and the selective CK2 inhibitor CAM4066” (Bioorg Med Chem, 2017).
Calls of active or inactive are those of the source. The rule behind the calls is not given here.

Target: Casein kinase II subunit alpha (Homo sapiens) (UniProt P68400)
Sequence (P68400 whole entry, looked up): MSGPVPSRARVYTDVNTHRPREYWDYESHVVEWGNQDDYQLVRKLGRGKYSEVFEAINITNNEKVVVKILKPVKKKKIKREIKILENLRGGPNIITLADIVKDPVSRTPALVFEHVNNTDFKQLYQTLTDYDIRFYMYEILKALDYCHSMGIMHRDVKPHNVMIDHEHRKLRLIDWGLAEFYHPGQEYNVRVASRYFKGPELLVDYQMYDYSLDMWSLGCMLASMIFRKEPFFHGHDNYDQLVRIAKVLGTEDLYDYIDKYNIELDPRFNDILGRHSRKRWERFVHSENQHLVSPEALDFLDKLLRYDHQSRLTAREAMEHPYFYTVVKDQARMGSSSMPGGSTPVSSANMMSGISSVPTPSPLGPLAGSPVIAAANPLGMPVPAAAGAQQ

deltaTm	ΔTm	SMILES
inactive	–	COc1cc(CC(=O)O)ccc1O
–	0.3 °C	CCCCOC(=O)N1CCC(N)CC1
–	4.1 °C	Cc1ccc(O)c(C(=O)O)c1
inactive	–	Nc1cc(Br)cnc1N
–	0.7 °C	O=C(O)Cc1ccc(Cl)c(Cl)c1
inactive	–	O=C(O)c1ccc2ccccc2n1
–	3.1 °C	O=C(O)CCc1ccc(O)cc1
–	0.8 °C	OC1CCC(N2CCNCC2)CC1 (stereo not drawn)
inactive	–	NC(=O)c1ccc(O)cc1
inactive	–	O=C(O)Cc1cc(=O)oc2ccccc12
–	-0.5 °C	O=C(O)c1cccc(C(=O)O)n1
inactive	–	O=C(O)c1cc2cc(O)ccc2[nH]1
–	3 °C	O=C(O)c1ccc2cc[nH]c2c1
–	3.2 °C	O=C(O)c1ccc(O)cc1O
–	-1.8 °C	O=C(O)c1ccc[nH]c1=O
–	4.1 °C	O=C(O)c1cc2cc(F)ccc2[nH]1
–	0.5 °C	Cc1cc(C(=O)O)ccc1N
–	-0.6 °C	O=C(O)C(=O)Cc1ccccc1
–	2.4 °C	O=C(O)c1ccc(O)c(O)c1
–	0 °C	Nc1cccc(C(=O)O)c1
inactive	–	O=C(O)c1cc(=O)c2ccccc2o1
–	3.8 °C	NNc1ccc(C(=O)O)cc1

SMILES	deltaTm	ΔTm
O=c1cc(O)c2ccccc2o1	–	3.8 °C
